Tests used:
ABUTH [1] = assay: Pre-emergence herbicidal action against ABUTH; type: in vivo, Abutilon theophrasti; conditions: Abutilon theophrasti, 504 h; for pest or weed control at 80 g/ha: scored visually after 3 weeks vs untreated controls (100% = plants have died, 0% = like control plants)
Procedure, shortened: (§1)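 Pre-emergence soil-surface spray of formulated compound (WP or EC; 600 to 800 l/ha; 0.2% wetting agent) over seeds sown in sandy loam. After 3 weeks under greenhouse conditions, damage is estimated visually in percent against untreated plants.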

ALOMY [2] = assay: Pre-emergence herbicidal action against ALOMY; type: in vivo, Alopecurus myosuroides; conditions: Alopecurus myosuroides, 504 h, pre-emergence; for pest or weed control at 80 g/ha: scored visually after 3 weeks vs untreated controls (100% = plants have died, 0% = like control plants)
Procedure, shortened: as §1

AMARE [3] = assay: Pre-emergence herbicidal action against AMARE; type: in vivo, Amaranthus retroflexus; conditions: Amaranthus retroflexus, 504 h, scored visually after 3 weeks vs untreated controls, 100% = plants have died, 0% = like control plants
Procedure, shortened: as §1

AVEFA [4] = assay: Pre-emergence herbicidal action against AVEFA; type: in vivo, Avena fatua; conditions: Avena fatua, 504 h, pre-emergence
Procedure, shortened: as §1

ECHCG [5] = assay: Pre-emergence herbicidal action against ECHCG; type: in vivo, Echinochloa crus-galli; conditions: Echinochloa crus-galli, 504 h
Procedure, shortened: as §1

LOLRI = assay: Pre-emergence herbicidal action against LOLRI; type: in vivo, Lolium rigidum; conditions: Lolium rigidum, 504 h, 80 g/ha
Procedure, shortened: as §1

MATIN = assay: Pre-emergence herbicidal action against MATIN; type: in vivo, Matricaria inodora; conditions: Tripleurospermum inodorum, 504 h; for pest or weed control at 20 g/ha: dosage 20 g/ha; for pest or weed control at 80 g/ha: dosage 80 g/ha
Procedure, shortened: as §1

PHBPU [6] = assay: Pre-emergence herbicidal action against PHBPU; type: in vivo, Pharbitis purpurea; conditions: Ipomoea purpurea, 504 h, dosage 80 g/ha
Procedure, shortened: as §1

POLCO = assay: Pre-emergence herbicidal action against POLCO; type: in vivo, Polygonum convolvulus; conditions: Fallopia convolvulus, 504 h, dosage 80 g/ha
Procedure, shortened: as §1

SETVI [7] = assay: Pre-emergence herbicidal action against SETVI; type: in vivo, Setaria viridis; conditions: Setaria viridis, 504 h; for pest or weed control at 80 g/ha: dosage 80 g/ha
Procedure, shortened: as §1

VERPE [8] = assay: Pre-emergence herbicidal action against VERPE; type: in vivo, Veronica persica; conditions: Veronica persica, 504 h, dosage 80 g/ha
Procedure, shortened: as §1

VIOTR [9] = assay: Pre-emergence herbicidal action against VIOTR; type: in vivo, Viola tricolor; conditions: Viola tricolor, 504 h; for pest or weed control at 80 g/ha: dosage 80 g/ha
Procedure, shortened: as §1

DIGSA [10] = assay: Pre-emergence herbicidal action against DIGSA; type: in vivo, Digitaria sanguinalis; conditions: Digitaria sanguinalis, 504 h; for pest or weed control at 80 g/ha: dosage 80 g/ha
Procedure, shortened: as §1

ABUTH [11] = assay: Post-emergence herbicidal action against ABUTH; type: in vivo, Abutilon theophrasti; conditions: Abutilon theophrasti, 504 h, visual assessment about 3 weeks after treatment vs untreated controls; for pest or weed control at 5 g/ha: dosage 5 g/ha; for pest or weed control at 20 g/ha: dosage 20 g/ha
Procedure, shortened: (§2)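 Greenhouse plants in sandy loam were sprayed at the one-leaf stage, 2 to 3 weeks after sowing, with WP or EC formulations as aqueous suspension or emulsion (600 to 800 l/ha water, 0.2% wetting agent). Visual damage was scored about 3 weeks later versus untreated controls, 0% = like control, 100% = dead.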

ALOMY [12] = assay: Post-emergence herbicidal action against ALOMY; type: in vivo, Alopecurus myosuroides; conditions: Alopecurus myosuroides, 504 h, dosage 20 g/ha, visual assessment about 3 weeks after treatment vs untreated controls
Procedure, shortened: as §2

AMARE [13] = assay: Post-emergence herbicidal action against AMARE; type: in vivo, Amaranthus retroflexus; conditions: Amaranthus retroflexus, 504 h, 20 g/ha, visual assessment about 3 weeks after treatment, 100% = plants have died, 0% = like control plants
Procedure, shortened: as §2

AVEFA [14] = assay: Post-emergence herbicidal action against AVEFA; type: in vivo, Avena fatua; conditions: Avena fatua, 504 h, 20 g/ha, visual assessment about 3 weeks after treatment, 100% = plants have died, 0% = like control plants
Procedure, shortened: as §2

ECHCG [15] = assay: Post-emergence herbicidal action against ECHCG; type: in vivo, Echinochloa crus-galli; conditions: Echinochloa crus-galli, 504 h
Procedure, shortened: as §2

PHBPU [16] = assay: Post-emergence herbicidal action against PHBPU; type: in vivo, Pharbitis purpurea; conditions: Ipomoea purpurea, 504 h; for pest or weed control at 20 g/ha: dosage 20 g/ha
Procedure, shortened: as §2

SETVI [17] = assay: Post-emergence herbicidal action against SETVI; type: in vivo, Setaria viridis; conditions: Setaria viridis, 504 h
Procedure, shortened: as §2

VERPE [18] = assay: Post-emergence herbicidal action against VERPE; type: in vivo, Veronica persica; conditions: Veronica persica, 504 h, 20 g/ha
Procedure, shortened: as §2

VIOTR [19] = assay: Post-emergence herbicidal action against VIOTR; type: in vivo, Viola tricolor; conditions: Viola tricolor, 504 h
Procedure, shortened: as §2

DIGSA [20] = assay: Post-emergence herbicidal action against DIGSA; type: in vivo, Digitaria sanguinalis; conditions: Digitaria sanguinalis, 504 h
Procedure, shortened: as §2

[21] = 20 g/ha, scored visually after 3 weeks, 100% = plants have died, 0% = like control plants

| SMILES | pest or weed control at 80 g/ha (ABUTH [1]) [%] | pest or weed control at 80 g/ha (ALOMY [2]) [%] | pest or weed control at 20 g/ha (AMARE [3]) [%] | pest or weed control at 80 g/ha (AMARE [3]) [%] | pest or weed control at 80 g/ha (AVEFA [4]) [%] | pest or weed control at 20 g/ha (ECHCG [5]) [%] | pest or weed control at 80 g/ha (ECHCG [5]) [%] | pest or weed control at 80 g/ha (LOLRI) [%] | pest or weed control at 20 g/ha (MATIN) [%] | pest or weed control at 80 g/ha (MATIN) [%] | pest or weed control at 80 g/ha (PHBPU [6]) [%] | pest or weed control at 80 g/ha (POLCO) [%] | pest or weed control at 80 g/ha (SETVI [7]) [%] | pest or weed control at 80 g/ha (VERPE [8]) [%] | pest or weed control at 80 g/ha (VIOTR [9]) [%] | pest or weed control at 80 g/ha (DIGSA [10]) [%] | pest or weed control at 5 g/ha (ABUTH [11]) [%] | pest or weed control at 20 g/ha (ABUTH [11]) [%] | pest or weed control at 20 g/ha (AMARE [13]) [%] | pest or weed control at 20 g/ha (AVEFA [14]) [%] | other results |
| --- | --- | --- | --- | --- | --- | --- | --- | --- | --- | --- | --- | --- | --- | --- | --- | --- | --- | --- | --- | --- | --- |
| CNC(=O)c1c(C(F)F)ccc(C(=O)Nc2nnnn2C)c1Br [Example 1-225] | 80 | 100 | 100 | 100 | 80 | 90 | 100 | 80 | 90 | 100 | 100 | 90 | 100 | 80 | 100 | 90 | 80 | 80 | 100 | 80 | pest or weed control at 20 g/ha (AVEFA [4]; [21]): 80%; pest or weed control at 20 g/ha (SETVI [7]; dosage 20 g/ha): 90%; pest or weed control at 20 g/ha (ALOMY [12]): 90%; pest or weed control at 5 g/ha (ECHCG [15]; dosage 5 g/ha): 90%; pest or weed control at 20 g/ha (ECHCG [15]; dosage 20 g/ha): 100%; pest or weed control at 20 g/ha (PHBPU [16]): 80%; pest or weed control at 5 g/ha (SETVI [17]; dosage 5 g/ha): 90%; pest or weed control at 20 g/ha (SETVI [17]; dosage 20 g/ha): 100%; pest or weed control at 20 g/ha (VERPE [18]): 90%; pest or weed control at 20 g/ha (VIOTR [19]): 80%; pest or weed control at 5 g/ha (DIGSA [20]): 90%; pest or weed control at 20 g/ha (DIGSA [20]): 90% |
| Cn1nnnc1NC(=O)c1ccc(C(F)F)c(C(=O)NC2CC2)c1Br [Example 1-227] | 100 | 100 | 100 | 100 | 90 | 80 | 90 | 90 | 80 | 100 | 80 | 90 | 100 | 100 | 100 | 100 | 100 | 100 | 100 | 80 | pest or weed control at 20 g/ha (ABUTH [1]; dosage 20 g/ha, scored visually after 3 weeks vs untreated controls, 100% = plants have died, 0% = like control plants, read-out: Pre-emergence action against ABUTH (herbicidal activity in percent)): 100%; pest or weed control at 20 g/ha (ALOMY [2]; [21]): 80%; pest or weed control at 20 g/ha (VIOTR [9]; dosage 20 g/ha): 100%; pest or weed control at 20 g/ha (DIGSA [10]; dosage 20 g/ha): 100%; pest or weed control at 5 g/ha (PHBPU [16]; dosage 5 g/ha): 80%; pest or weed control at 20 g/ha (PHBPU [16]): 90%; pest or weed control at 20 g/ha (VERPE [18]): 80%; pest or weed control at 5 g/ha (VIOTR [19]; 5 g/ha): 100%; pest or weed control at 20 g/ha (VIOTR [19]): 100%; pest or weed control at 5 g/ha (DIGSA [20]): 100%; pest or weed control at 20 g/ha (DIGSA [20]): 100% |
